Results reported in publication PMC4102788, “Linking off-target kinase pharmacology to the differential cellular effects observed among PARP inhibitors” (Oncotarget, 2014).

Tests used:
[1] = target: T1, human HIPK2 kinase (Homo sapiens, UniProt Q9H2X6); assay: Human HIPK2 kinase in vitro inhibition assay (Cerep, LANCE); assay type: biochemical; conditions: human recombinant enzyme, 10 µM ATP
T1 construct: purchased Cerep (CRO that ran the assay) 2915 (781-H2)
Source text: (§1) Rucaparib, veliparib and olaparib were purchased from Selleckchem. Kinase in vitro assays were perfomed at Cerep (www.cerep.fr) by measuring the phosphorylation of appropriate peptide substrates by human recombinant enzymes and using FRET as a detection method (a detailed description of each kinase assay is available in online supplementary data).
Human HIPK2 kinase in vitro inhibition assay
All details for the HIPK2 in vitro assay can be consulted in the Cerep Catalogue available online under references 2915 (781-H2): http://www.cerep.fr/cerep/users/pages/catalog/Affiche_CondExp_Test.asp?test=2915 Evaluation of the effects of compounds on the activity of the human HIPK2 quantified by measuring the phosphorylation of the substrate Ulight- […]
-amide (MBP) using a human recombinant enzyme and the […]
mixture is incubated for 30 min at room temperature. […] After 60 more min, the fluorescence transfer is measured at λex=337 nm, λem=620 nm and λem=665 nm using a microplate reader (Envision, Perkin Elmer). The enzyme activity is determined by dividing the signal measured at λem=665 nm by that measured at λem=620 nm (ratio). The results are expressed as a percent inhibition of the control enzyme activity. […]

[2] = target: T2, human ALK kinase (Homo sapiens, UniProt Q9UM73); assay: Human ALK kinase in vitro inhibition assay (Cerep, LANCE); assay type: biochemical; conditions: human recombinant enzyme, 10 µM ATP
T2 construct: purchased Cerep (CRO that ran the assay) 2678 (768-alk)
T2 sequence (Q9UM73 19-1620): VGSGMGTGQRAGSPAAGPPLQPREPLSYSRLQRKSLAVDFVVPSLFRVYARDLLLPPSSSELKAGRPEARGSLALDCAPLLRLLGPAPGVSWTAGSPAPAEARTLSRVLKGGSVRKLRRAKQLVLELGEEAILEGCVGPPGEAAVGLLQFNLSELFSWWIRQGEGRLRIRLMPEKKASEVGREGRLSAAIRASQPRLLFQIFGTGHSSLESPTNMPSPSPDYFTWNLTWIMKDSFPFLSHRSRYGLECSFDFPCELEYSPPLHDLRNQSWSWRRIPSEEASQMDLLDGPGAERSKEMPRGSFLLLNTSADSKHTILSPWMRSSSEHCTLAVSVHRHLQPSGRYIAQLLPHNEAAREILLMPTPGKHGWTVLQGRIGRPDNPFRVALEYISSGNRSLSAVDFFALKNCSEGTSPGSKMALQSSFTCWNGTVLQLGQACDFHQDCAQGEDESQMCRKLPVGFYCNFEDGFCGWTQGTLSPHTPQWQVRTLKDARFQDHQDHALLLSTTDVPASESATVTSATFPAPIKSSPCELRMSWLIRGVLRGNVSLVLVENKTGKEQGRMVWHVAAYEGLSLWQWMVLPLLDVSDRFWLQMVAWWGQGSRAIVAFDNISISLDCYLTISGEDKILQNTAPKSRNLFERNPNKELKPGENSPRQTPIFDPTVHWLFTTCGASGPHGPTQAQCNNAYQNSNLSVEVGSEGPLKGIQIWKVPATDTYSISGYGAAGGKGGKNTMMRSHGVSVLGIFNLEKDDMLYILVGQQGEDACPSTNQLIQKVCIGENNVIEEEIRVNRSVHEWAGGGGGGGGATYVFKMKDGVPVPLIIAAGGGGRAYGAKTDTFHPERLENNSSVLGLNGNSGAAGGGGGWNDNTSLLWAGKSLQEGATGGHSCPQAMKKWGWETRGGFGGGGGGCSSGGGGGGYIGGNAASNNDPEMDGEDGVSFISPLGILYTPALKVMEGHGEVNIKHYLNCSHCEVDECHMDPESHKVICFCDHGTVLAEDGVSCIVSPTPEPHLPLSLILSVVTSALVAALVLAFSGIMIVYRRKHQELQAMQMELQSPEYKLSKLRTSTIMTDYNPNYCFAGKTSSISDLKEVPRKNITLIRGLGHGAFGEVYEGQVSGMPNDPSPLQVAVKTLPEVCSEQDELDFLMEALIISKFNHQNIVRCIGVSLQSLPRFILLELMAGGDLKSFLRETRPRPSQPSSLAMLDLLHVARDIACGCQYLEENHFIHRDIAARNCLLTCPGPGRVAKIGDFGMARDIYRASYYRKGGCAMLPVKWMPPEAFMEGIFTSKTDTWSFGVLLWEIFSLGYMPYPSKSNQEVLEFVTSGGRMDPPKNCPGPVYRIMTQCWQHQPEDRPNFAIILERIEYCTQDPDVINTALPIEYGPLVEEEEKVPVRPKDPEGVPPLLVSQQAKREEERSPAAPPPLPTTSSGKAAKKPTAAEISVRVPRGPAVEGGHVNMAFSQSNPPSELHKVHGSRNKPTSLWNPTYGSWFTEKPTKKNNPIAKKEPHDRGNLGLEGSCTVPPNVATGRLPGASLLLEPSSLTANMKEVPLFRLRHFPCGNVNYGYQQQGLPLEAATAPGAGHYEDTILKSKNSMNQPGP
Source text: as §1
Human CDC7 kinase in vitro inhibition assay
All details for the CDC7 in vitro assay can be consulted in the Cerep Catalogue available online under references 2764 (749-cdc7): […]
http://www.cerep.fr/cerep/users/pages/catalog/Affiche_CondExp_Test.asp?test=2764 Evaluation of the effects of compounds on the activity of the human CDC7/ASK quantified by measuring the phosphorylation of the substrate […]
Ulight-[…] […]
labeled with europium chelate is added. After 60 more min, the fluorescence transfer is measured at λex=337 nm, λem=620 nm and λem=665 nm using a microplate reader (Envision, Perkin Elmer). The enzyme activity is determined by dividing the signal measured at λem=665 nm by that measured at λem=620 nm (ratio). The results are expressed as a percent inhibition of the control enzyme activity. […]
ALK quantified by measuring the phosphorylation of the substrate Ulight- […]
europium chelate is added. After 60 more min, the fluorescence transfer is measured at […]
λex=337 nm, λem=620 nm and λem=665 nm using a microplate reader (Envision, […]

[3] = tested on: STAT3 phosphorilation; parameters: method as in PMID 22678161; conditions: at 5 µM; cited from earlier work
[4] = 40 mg single daily dose; cited from earlier work

T1 sequence (Q9H2X6 whole entry): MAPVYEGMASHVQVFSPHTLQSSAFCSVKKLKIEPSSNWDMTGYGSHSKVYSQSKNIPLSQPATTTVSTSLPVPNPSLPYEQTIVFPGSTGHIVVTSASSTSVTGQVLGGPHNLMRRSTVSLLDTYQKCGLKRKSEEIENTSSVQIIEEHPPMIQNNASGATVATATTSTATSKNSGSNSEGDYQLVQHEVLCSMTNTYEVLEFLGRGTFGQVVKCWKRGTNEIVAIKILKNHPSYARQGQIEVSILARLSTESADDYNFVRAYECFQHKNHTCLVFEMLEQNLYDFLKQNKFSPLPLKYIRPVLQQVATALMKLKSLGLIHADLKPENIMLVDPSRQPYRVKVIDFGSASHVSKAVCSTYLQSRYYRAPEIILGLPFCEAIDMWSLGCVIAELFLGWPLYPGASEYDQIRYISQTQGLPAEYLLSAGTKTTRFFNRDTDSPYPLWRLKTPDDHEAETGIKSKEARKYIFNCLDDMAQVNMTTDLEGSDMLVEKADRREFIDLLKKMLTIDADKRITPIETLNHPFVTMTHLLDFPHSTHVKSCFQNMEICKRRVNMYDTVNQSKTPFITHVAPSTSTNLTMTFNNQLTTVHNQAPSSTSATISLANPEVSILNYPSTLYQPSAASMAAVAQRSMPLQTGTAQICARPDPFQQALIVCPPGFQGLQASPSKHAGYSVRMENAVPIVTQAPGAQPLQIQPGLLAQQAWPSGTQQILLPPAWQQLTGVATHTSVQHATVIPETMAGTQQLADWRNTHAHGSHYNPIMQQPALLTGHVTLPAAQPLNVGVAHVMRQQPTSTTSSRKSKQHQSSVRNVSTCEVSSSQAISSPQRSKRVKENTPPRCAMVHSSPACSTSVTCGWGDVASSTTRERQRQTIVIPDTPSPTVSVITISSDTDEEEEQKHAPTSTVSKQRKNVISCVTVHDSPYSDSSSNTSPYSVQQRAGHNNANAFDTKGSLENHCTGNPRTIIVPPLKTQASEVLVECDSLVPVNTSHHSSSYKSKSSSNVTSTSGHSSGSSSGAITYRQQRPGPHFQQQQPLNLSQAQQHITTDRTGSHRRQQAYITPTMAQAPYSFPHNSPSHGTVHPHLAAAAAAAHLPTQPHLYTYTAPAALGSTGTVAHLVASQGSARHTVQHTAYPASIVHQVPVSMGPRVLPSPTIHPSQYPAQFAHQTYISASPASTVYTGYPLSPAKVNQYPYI

## CNCc1ccc(-c2[nH]c3cc(F)cc4c3c2CCNC4=O)cc1 [rucaparib]
[1]
  IC50: 4.4 µM
[2]
  IC50: 18 µM
[3]
  effect on STAT3 phosphorilation: inhibit STAT3 phosphorilation
[4]
  highest peak plasma concentration: around 2 µM
